Experimental data as given in patent US20140090094A1, “MODULATORS OF SLC22A7” (BAYER INTELLECTUAL PROPERTY GmbH, priority 2011, published 2014).
Where “and” joins values, the source holds several entries; their conditions need not be identical. Equal values may be shown once.

How the values were obtained:
[1] = molecular target: OAT2h splice variant E131_W132insSQ (Homo sapiens, UniProt Q9Y694); conditions: initial rate 1 min, 37° C., 10 μmol/l, LC-MS/MS, uptake buffer in the expression period
Protocol: (§1) A substrate search by LC-MS difference shading was performed with 293 cells stably transfected to express OAT2 from rat. […] To verify that trigonelline is directly transported by OAT2 and not just increased indirectly, initial rates of uptake (1 min, 37° C.) of trigonelline (10 μmol/l) were determined by LC-MS/MS.
For measurement of solute uptake, cells were grown in surface culture on 60 mm polystyrol dishes (Nunclon 150288, Nunc, Roskilde, Denmark) precoated with 0.1 g/l poly-L-ornithine in 0.15 M boric acid-NaOH, pH 8.4. Cells were used for uptake experiments at a confluence of at least 70%. Uptake was measured at 37° C. […] Radioactivity was determined, after cell lysis with 0.1% v/v Triton X-100 in 5 mmol/l TRIS-HCl pH 7.4, by liquid scintillation counting. […]
After centrifugation (1 min, 16000×g, 20° C.) of thawed lysates, 100 μl of the supernatant was mixed with either 10 μl unlabeled MPP+ iodide (0.5 ng/μl) or biphenyl-4-carboxylic acid (Sigma-Aldrich) as internal standard. Of this mixture, […] were analyzed by LCMS/MS on a triple quadrupole mass spectrometer (4000 Q TRAP, Applied Biosystems, Darmstadt, Germany). […] For quantification (scan time 150 ms), the optimal collision energy for argon-induced fragmentation in the second quadrupole was determined for each analyte. […] Acute uptake mediated by heterologously expressed carrier was then calculated as (c−a)−(d−b). […]

[2] = molecular target: T1, OAT2r (Rattus norvegicus, UniProt Q5RLM2); test: 24 h accumulation in lysates of OAT2r-expressing versus control cells (LC-MS/MS); assay type: cell-based; conditions: 24 h incubation, compound at 100 μmol/l
T1 construct: expressed in transfected cells
T1 sequence (Q5RLM2 1-535): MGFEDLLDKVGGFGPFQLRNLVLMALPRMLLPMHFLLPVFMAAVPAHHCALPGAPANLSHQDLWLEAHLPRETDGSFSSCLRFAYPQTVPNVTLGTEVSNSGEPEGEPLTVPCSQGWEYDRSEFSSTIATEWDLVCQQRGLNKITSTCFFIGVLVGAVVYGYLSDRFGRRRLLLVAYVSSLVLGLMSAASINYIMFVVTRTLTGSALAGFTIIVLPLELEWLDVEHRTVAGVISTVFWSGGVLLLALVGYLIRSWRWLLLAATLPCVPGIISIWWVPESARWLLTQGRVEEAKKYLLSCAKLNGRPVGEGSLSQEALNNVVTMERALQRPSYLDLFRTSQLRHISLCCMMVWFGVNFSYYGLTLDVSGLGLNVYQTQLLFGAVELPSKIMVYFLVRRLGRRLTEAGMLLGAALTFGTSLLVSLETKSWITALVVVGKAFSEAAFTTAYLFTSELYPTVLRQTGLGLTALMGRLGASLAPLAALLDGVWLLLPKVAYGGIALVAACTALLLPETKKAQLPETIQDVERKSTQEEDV
Protocol: as §1
With trigonelline as substrate lead, compounds wholly or partly related in structure were analyzed for transport by OAT2 from rat.
After centrifugation (1 min, 16000×g, 20° C.) of thawed lysates, 100 μl of the supernatant was mixed with either 10 μl unlabeled MPP+ iodide (0.5 ng/μl) or biphenyl-4-carboxylic acid (Sigma-Aldrich) as internal standard. Of this mixture, […] were analyzed by LCMS/MS on a triple quadrupole mass spectrometer (4000 Q TRAP, Applied Biosystems, Darmstadt, Germany). […] Atmospheric pressure ionization with positive or negative electrospray was used. For quantification (scan time 150 ms), the optimal collision energy for argon-induced fragmentation in the second quadrupole was determined for each analyte. […] Linear calibration curves were constructed from at least six standards which were prepared using control cell lysates as solvent. Sample analyte content was calculated from the analyte response ratio and the slope of the calibration curve, obtained by linear regression. With LC-MS quantitation, solute content of cell lysates was determined for 4 conditions ([…]): a) transporter expression on, uptake buffer; b) expression off, uptake buffer; c) expression on, substrate in uptake buffer; d) expression off, substrate in uptake buffer. Acute uptake mediated by heterologously expressed carrier was then calculated as (c−a)−(d−b). This approach takes into account endogenous solute content and non-specific uptake. Protein was measured by the BCA assay (Pierce) with bovine serum albumin as standard. The protein content of MS samples was estimated from 3 matched cell dishes.

[3] = molecular target: OAT2h splice variant (Homo sapiens, UniProt Q9Y694); conditions: 24 h incubation, 100 μmol/l in uptake buffer
Protocol: as §1
After centrifugation (1 min, 16000×g, 20° C.) of thawed lysates, 100 μl of the supernatant was mixed with either 10 μl unlabeled MPP+ iodide (0.5 ng/μl) or biphenyl-4-carboxylic acid (Sigma-Aldrich) as internal standard. Of this mixture, […] were analyzed by LCMS/MS on a triple quadrupole mass spectrometer (4000 Q TRAP, Applied Biosystems, Darmstadt, Germany). […] For quantification (scan time 150 ms), the optimal collision energy for argon-induced fragmentation in the second quadrupole was determined for each analyte. […] Sample analyte content was calculated from the analyte response ratio and the slope of the calibration curve, obtained by linear regression. With LC-MS quantitation, solute content of cell lysates was determined for 4 conditions (paired dishes, incubation time 1 min): a) transporter expression on, uptake buffer; b) expression off, uptake buffer; c) expression on, substrate in uptake buffer; d) expression off, substrate in uptake buffer. Acute uptake mediated by heterologously expressed carrier was then calculated as (c−a)−(d−b). […]

carrier-mediated clearance [1]: 2.5±0.9 μl min-1 mg protein-1 | increase in OAT2r cell lysates versus control cells (factor f) [2]: 8.1 and 4.7 | increase in cell lysates versus control cells (factor f) [3]: 3.9
SMILES: C[n+]1cccc(C(=O)[O-])c1 [trigonelline]
